Data published in ChEMBL document CHEMBL5724914, “Linking interpersonal differences in gut microbiota composition and drug biotransformation activity” (2024).

What was measured:
[1] = human gut metagenome, 24 h, 2 µM
[2] = human gut metagenome, 24 h, 2 µM; remark: listed apart in the source
[3] = human gut metagenome, 24 h, 2 µM; remark: listed apart in the source
[4] = human gut metagenome, 24 h, 2 µM; remark: listed apart in the source
[5] = human gut metagenome, 24 h, 2 µM; remark: listed apart in the source
[6] = human gut metagenome, 24 h, 2 µM; remark: listed apart in the source
[7] = (§1) The drug is tested on WLS-006 corresponding to human gut metagenome with ENA study accession number: PRJEB37062 and ENA sample accession number: ERS12561741 for biotransformation under anaerobic condition. The drug concentrations were measured over 9 timepoints collected between 0 and 24 hours of incubation by liquid-chromatography-coupled mass spectrometry (LC–MS); conditions: 2 µM
[8] = as §1, with “Z-020” for “WLS-006”, “rabbit” for “human”, “ERS12561819” for “ERS12561741”; conditions: 2 µM
[9] = human gut metagenome, 24 h, 2 µM; remark: listed apart in the source
[10] = human gut metagenome, 24 h, 2 µM; remark: listed apart in the source
[11] = as §1, with “Z-005” for “WLS-006”, “to” for “to human gut”, “ERS12561805” for “ERS12561741”; conditions: 2 µM
[12] = as §1, with “WLS-073” for “WLS-006”, “ERS12561749” for “ERS12561741”; conditions: 2 µM
[13] = as §1, with “Z-025” for “WLS-006”, “rabbit” for “human”, “ERS12561824” for “ERS12561741”; conditions: 2 µM
[14] = human gut metagenome, 24 h, 2 µM; remark: listed apart in the source
[15] = human gut metagenome, 24 h, 2 µM; remark: listed apart in the source
[16] = human gut metagenome, 24 h, 2 µM; remark: listed apart in the source
[17] = as §1, with “Z-030” for “WLS-006”, “mouse” for “human”, “ERS12561829” for “ERS12561741”; conditions: 2 µM
[18] = as §1, with “Z-004” for “WLS-006”, “to” for “to human gut”, “ERS12561804” for “ERS12561741”; conditions: 2 µM
[19] = as §1, with “WLS-082” for “WLS-006”, “ERS12561751” for “ERS12561741”; conditions: 2 µM
[20] = as §1, with “WLS-350” for “WLS-006”, “ERS12561789” for “ERS12561741”; conditions: 2 µM
Also: call rule not given here.

With CCCc1nc2c(C)cc(-c3nc4ccccc4n3C)cc2n1Cc1ccc(-c2ccccc2C(=O)O)cc1 the “Bacterial Biotransformation” value [1] was “Compound metabolized”, the “Bacterial Biotransformation” value [2] was “Compound metabolized” and the “Bacterial Biotransformation” value [3] was “Compound metabolized”. For the same compound, the “Bacterial Biotransformation” value [4] was “Compound metabolized”, the “Bacterial Biotransformation” value [5] was “Compound metabolized” and the “Bacterial Biotransformation” value [6] was “Compound metabolized”. The “Bacterial Biotransformation” value [7] was “Compound metabolized”, the “Bacterial Biotransformation” value [8] was “Compound metabolized” and the “Bacterial Biotransformation” value [9] was “Compound metabolized”. The “Bacterial Biotransformation” value [10] was “Compound metabolized”, the “Bacterial Biotransformation” value [11] was “Compound metabolized” and the “Bacterial Biotransformation” value [12] was “Compound metabolized”. For the same compound, the “Bacterial Biotransformation” value [13] was “Compound metabolized”, the “Bacterial Biotransformation” value [14] was “Compound metabolized” and the “Bacterial Biotransformation” value [15] was “Compound metabolized”. The “Bacterial Biotransformation” value [16] was “Compound metabolized”, the “Bacterial Biotransformation” value [17] was “Compound NOT metabolized” and the “Bacterial Biotransformation” value [18] was “Compound metabolized”. For the same compound, the “Bacterial Biotransformation” value [19] was “Compound metabolized” and the “Bacterial Biotransformation” value [20] was “Compound metabolized”.

For CCCCC(=O)N(Cc1ccc(-c2ccccc2-c2nnn[nH]2)cc1)[C@H](C(=O)O)C(C)C, the “Bacterial Biotransformation” value [1] was “Compound NOT metabolized”, the “Bacterial Biotransformation” value [2] was “Compound metabolized” and the “Bacterial Biotransformation” value [3] was “Compound metabolized”. For the same compound, the “Bacterial Biotransformation” value [4] was “Compound metabolized”, the “Bacterial Biotransformation” value [5] was “Compound NOT metabolized” and the “Bacterial Biotransformation” value [6] was “Compound metabolized”. For the same compound, the “Bacterial Biotransformation” value [7] was “Compound metabolized”, the “Bacterial Biotransformation” value [8] was “Compound NOT metabolized” and the “Bacterial Biotransformation” value [9] was “Compound metabolized”. The “Bacterial Biotransformation” value [10] was “Compound metabolized”, the “Bacterial Biotransformation” value [11] was “Compound NOT metabolized” and the “Bacterial Biotransformation” value [12] was “Compound NOT metabolized”. For the same compound, the “Bacterial Biotransformation” value [13] was “Compound NOT metabolized”, the “Bacterial Biotransformation” value [14] was “Compound metabolized” and the “Bacterial Biotransformation” value [15] was “Compound metabolized”. The “Bacterial Biotransformation” value [16] was “Compound metabolized”, the “Bacterial Biotransformation” value [17] was “Compound NOT metabolized” and the “Bacterial Biotransformation” value [18] was “Compound NOT metabolized”. The “Bacterial Biotransformation” value [19] was “Compound metabolized” and the “Bacterial Biotransformation” value [20] was “Compound metabolized”.

With CCC(COC(=O)c1cc(OC)c(OC)c(OC)c1)(c1ccccc1)N(C)C.O=C(O)/C=C\C(=O)O (stereo not given) the “Bacterial Biotransformation” value [1] was “Compound metabolized”, the “Bacterial Biotransformation” value [2] was “Compound NOT metabolized” and the “Bacterial Biotransformation” value [3] was “Compound metabolized”. The “Bacterial Biotransformation” value [4] was “Compound NOT metabolized”, the “Bacterial Biotransformation” value [5] was “Compound NOT metabolized” and the “Bacterial Biotransformation” value [6] was “Compound metabolized”. The “Bacterial Biotransformation” value [7] was “Compound NOT metabolized”, the “Bacterial Biotransformation” value [8] was “Compound metabolized” and the “Bacterial Biotransformation” value [9] was “Compound metabolized”. The “Bacterial Biotransformation” value [10] was “Compound NOT metabolized”, the “Bacterial Biotransformation” value [11] was “Compound NOT metabolized” and the “Bacterial Biotransformation” value [12] was “Compound NOT metabolized”. For the same compound, the “Bacterial Biotransformation” value [13] was “Compound NOT metabolized”, the “Bacterial Biotransformation” value [14] was “Compound NOT metabolized” and the “Bacterial Biotransformation” value [15] was “Compound metabolized”. The “Bacterial Biotransformation” value [16] was “Compound NOT metabolized”, the “Bacterial Biotransformation” value [17] was “Compound NOT metabolized” and the “Bacterial Biotransformation” value [18] was “Compound NOT metabolized”. The “Bacterial Biotransformation” value [19] was “Compound metabolized” and the “Bacterial Biotransformation” value [20] was “Compound NOT metabolized”.

For COc1ccc(CCN(C)CCCC(C#N)(c2ccc(OC)c(OC)c2)C(C)C)cc1OC (stereo not given), the “Bacterial Biotransformation” value [1] was “Compound metabolized”, the “Bacterial Biotransformation” value [2] was “Compound metabolized” and the “Bacterial Biotransformation” value [3] was “Compound metabolized”. For the same compound, the “Bacterial Biotransformation” value [4] was “Compound NOT metabolized”, the “Bacterial Biotransformation” value [5] was “Compound NOT metabolized” and the “Bacterial Biotransformation” value [6] was “Compound metabolized”. For the same compound, the “Bacterial Biotransformation” value [7] was “Compound NOT metabolized”, the “Bacterial Biotransformation” value [8] was “Compound metabolized” and the “Bacterial Biotransformation” value [9] was “Compound metabolized”. For the same compound, the “Bacterial Biotransformation” value [10] was “Compound NOT metabolized”, the “Bacterial Biotransformation” value [11] was “Compound metabolized” and the “Bacterial Biotransformation” value [12] was “Compound metabolized”. The “Bacterial Biotransformation” value [13] was “Compound NOT metabolized”, the “Bacterial Biotransformation” value [14] was “Compound NOT metabolized” and the “Bacterial Biotransformation” value [15] was “Compound NOT metabolized”. The “Bacterial Biotransformation” value [16] was “Compound NOT metabolized”, the “Bacterial Biotransformation” value [17] was “Compound NOT metabolized” and the “Bacterial Biotransformation” value [18] was “Compound NOT metabolized”. For the same compound, the “Bacterial Biotransformation” value [19] was “Compound metabolized” and the “Bacterial Biotransformation” value [20] was “Compound metabolized”.

In the case of O=c1[nH]c2ccccc2n1CCCN1CCC(n2c(=O)[nH]c3cc(Cl)ccc32)CC1 [DOMPERIDONE], the “Bacterial Biotransformation” value [1] was “Compound NOT metabolized”, the “Bacterial Biotransformation” value [2] was “Compound NOT metabolized” and the “Bacterial Biotransformation” value [3] was “Compound NOT metabolized”. For the same compound, the “Bacterial Biotransformation” value [5] was “Compound NOT metabolized”, the “Bacterial Biotransformation” value [6] was “Compound NOT metabolized” and the “Bacterial Biotransformation” value [7] was “Compound NOT metabolized”. The “Bacterial Biotransformation” value [8] was “Compound NOT metabolized”, the “Bacterial Biotransformation” value [9] was “Compound NOT metabolized” and the “Bacterial Biotransformation” value [10] was “Compound NOT metabolized”. For the same compound, the “Bacterial Biotransformation” value [11] was “Compound NOT metabolized”, the “Bacterial Biotransformation” value [12] was “Compound NOT metabolized” and the “Bacterial Biotransformation” value [13] was “Compound NOT metabolized”. The “Bacterial Biotransformation” value [14] was “Compound NOT metabolized”, the “Bacterial Biotransformation” value [15] was “Compound NOT metabolized” and the “Bacterial Biotransformation” value [16] was “Compound NOT metabolized”. The “Bacterial Biotransformation” value [17] was “Compound NOT metabolized”, the “Bacterial Biotransformation” value [18] was “Compound NOT metabolized” and the “Bacterial Biotransformation” value [19] was “Compound NOT metabolized”. For the same compound, the “Bacterial Biotransformation” value [20] was “Compound NOT metabolized”.

With NC(=O)N1c2ccccc2CC(=O)c2ccccc21 [OXCARBAZEPINE] the “Bacterial Biotransformation” value [1] was “Compound NOT metabolized”, the “Bacterial Biotransformation” value [2] was “Compound metabolized” and the “Bacterial Biotransformation” value [3] was “Compound NOT metabolized”. For the same compound, the “Bacterial Biotransformation” value [4] was “Compound NOT metabolized”, the “Bacterial Biotransformation” value [5] was “Compound NOT metabolized” and the “Bacterial Biotransformation” value [6] was “Compound NOT metabolized”. For the same compound, the “Bacterial Biotransformation” value [8] was “Compound NOT metabolized”, the “Bacterial Biotransformation” value [9] was “Compound NOT metabolized” and the “Bacterial Biotransformation” value [10] was “Compound NOT metabolized”. For the same compound, the “Bacterial Biotransformation” value [11] was “Compound metabolized”, the “Bacterial Biotransformation” value [12] was “Compound NOT metabolized” and the “Bacterial Biotransformation” value [13] was “Compound NOT metabolized”. For the same compound, the “Bacterial Biotransformation” value [14] was “Compound NOT metabolized”, the “Bacterial Biotransformation” value [15] was “Compound NOT metabolized” and the “Bacterial Biotransformation” value [16] was “Compound metabolized”. The “Bacterial Biotransformation” value [17] was “Compound NOT metabolized”, the “Bacterial Biotransformation” value [18] was “Compound metabolized” and the “Bacterial Biotransformation” value [19] was “Compound NOT metabolized”. For the same compound, the “Bacterial Biotransformation” value [20] was “Compound metabolized”.

With COC(=O)[C@H]1[C@H]2C[C@@H]3c4[nH]c5cc(OC)ccc5c4CCN3C[C@H]2C[C@@H](OC(=O)c2cc(OC)c(OC)c(OC)c2)[C@@H]1OC [RESERPINE] the “Bacterial Biotransformation” value [2] was “Compound metabolized”, the “Bacterial Biotransformation” value [3] was “Compound NOT metabolized” and the “Bacterial Biotransformation” value [4] was “Compound NOT metabolized”. For the same compound, the “Bacterial Biotransformation” value [7] was “Compound metabolized”, the “Bacterial Biotransformation” value [8] was “Compound NOT metabolized” and the “Bacterial Biotransformation” value [9] was “Compound metabolized”. For the same compound, the “Bacterial Biotransformation” value [10] was “Compound NOT metabolized”, the “Bacterial Biotransformation” value [11] was “Compound NOT metabolized” and the “Bacterial Biotransformation” value [12] was “Compound NOT metabolized”. For the same compound, the “Bacterial Biotransformation” value [13] was “Compound NOT metabolized”, the “Bacterial Biotransformation” value [14] was “Compound metabolized” and the “Bacterial Biotransformation” value [15] was “Compound NOT metabolized”. The “Bacterial Biotransformation” value [16] was “Compound metabolized”, the “Bacterial Biotransformation” value [17] was “Compound NOT metabolized” and the “Bacterial Biotransformation” value [18] was “Compound NOT metabolized”. For the same compound, the “Bacterial Biotransformation” value [19] was “Compound metabolized” and the “Bacterial Biotransformation” value [20] was “Compound NOT metabolized”.
